Measurements: US4085224A, “Method of increasing feed utilization” (Eli Lilly and Company, priority 1976, dated 1978)

Columns and labels:
solubility = format: physicochemical
[1] = tested on: Staphylococcus aureus (H-Heatley) NRRL B-314; test: turbidometric assay on semiautomated system (Autoturb), relative gram-positive activity; format: cell-based; settings: relative to A-28086 factor A (standard); nutrient broth pH 7, four hours at 37° C.
Protocol: The C2 -C6 -acyl ester derivatives of A-28086 factor A also have antibacterial and antifungal activity. In one aspect, these derivatives have increased gram-positive activity. The relative gram-positive activities of certain of these derivatives were compared with the activity of factor A. The compounds were tested by turbidometric assay on a semiautomated system (Autoturb® microbiological assay system, Elanco) described by N. R. Kuzel and F. W. Kavanaugh in J. Pharmaceut. Sci. 60 (5), 764 and 767 (1971). In testing the A-28086 antibiotics, the following test parameters were used: Staphylococcus aureus (H-Heatley) NRRL B-314 in a nutrient broth medium (pH 7), incubated for four hours at 37° C. Test samples and the standard were dissolved in methanol-water (10:90). The standard, A-28086 factor A, was presented to the Autoturb® carrousel at concentrations of 2, 3, 4, and 5 mcg/ml. Test compounds were diluted to contain approximately 3 or 4 mcg of activity per ml, as presented to the carrousel. The relative activities of test compounds, as compared to that of the standard, are given below: […]

type III poliovirus = format: cell-based; settings: in vitro plaque suppression
vaccinia virus = format: cell-based; settings: in vitro plaque suppression
herpes virus = test: in vitro plaque suppression test; format: cell-based
Semliki Forest virus = test: in vitro plaque suppression test; format: cell-based
[2] = tested on: Transmissible Gastro-enteritis virus; format: cell-based
Newcastle Disease virus = format: cell-based; settings: tissue-culture
[3] = tested on: Infectious Bovine Rhinotracheitis virus; format: cell-based
Eimeria acervulina = test: anticoccidial activity in chicks (Table IX); format: in vivo; settings: E. acervulina; for Average Lesion Score: infected controls 1.60; for Oocysts Passed, Total/Bird: infected controls 36.32; for Percent Weight Gain: infected controls 63
Text: (§1) ^1 Four replicates, 5 broiler cockerels each

Eimeria maxima = test: anticoccidial activity in chicks (Table IX); format: in vivo; settings: E. maxima, 0.005 percent in feed
Text: as §1

Emeria brunetti = test: anticoccidial activity in chicks (Table IX); format: in vivo; settings: E. brunetti, 0.005 percent in feed
Text: as §1

[4] = tested on: E. necatrix and E. tenella; test: anticoccidial activity in chicks, mixed infection (Table X); format: in vivo; settings: 0.005 percent in feed
Text: (§2) ^1 Four replicates, 5 broiler cockerels each.

[5] = tested on: E. tenella, E. necatrix, E. maxima, E. brunetti, E. acervulina, and E. mivati; test: as above; format: in vivo; settings: 0.01 percent in feed
Text: as §2

rumen fluid = test: in vitro rumen fluid volatile fatty acid production; design: species or system steer; settings: 1 ppm in rumen fluid, 16 hours at 38° C.
Text: As discussed hereinabove, efficiency of carbohydrate utilization in ruminants is increased by treatments which stimulate the amimal's rumen flora to produce propionate compounds rather than acetate or butyrate compounds. The efficiency of feed use can be monitored by observing the production and concentration of propionate compounds in the rumen, using the following methods:
Remen fluid is obtained from a steer with a surgically-installed fistula opening into the rumen. The steer is maintained on a high-grain ration. A sample of rumen fluid is strained through four layers of cheesecloth, and the filtrate is collected. The particulate matter retained by the cheesecloth is resuspended in enough physiological buffer to return it to the original volume of the rumen fluid, and this suspension is strained again. The buffer used has the following composition:
The two filtrates are combined and allowed to stand until particulate matter separates to the top. The clear layer is separated, diluted with the same buffer (1:1) and then adjusted to between pH 6.8 to 7.0.
The diluted rumen fluid (10 ml) is placed in a 25-ml flask with 40 mg of the above-described feed, an additional 1 mg of soybean protein, and the compound to be tested. Four replicate flasks are used per treatment. Two sets of four control flasks each are also employed. A zero-time control and an incubated 16-hour control are used. All test flasks are incubated for 16 hours at 38° C. […] The samples are allowed to settle, and the supernatants are analyzed by gas chromatography for propionate, acetate, and butyrate compounds.

ruminal propionic acid = ruminal propionic acid concentration in fistulated steers; format: in vivo; settings: mean of five analyses in 14-day treatment
Protocol: The test reported in Table XII was conducted with mature fistulated steers weighing about 1,000 lbs. each. Two steers were fed a normal diet, and four steers in each treatment group were fed an identical diet to which A-28086 factor A had been added. To each aliquot (100 ml) of rumen fluid taken, 10 percent metaphosphoric acid (100 ml) was added. The samples were allowed to settle, and the supernatants were analyzed by gas chromatographic methods to determine propionic acid concentrations.
The results in Table XII are the mean percent increases in ruminal propionic acid concentration, averaged over five analyses in a 14-day treatment period. Controls had approximately 20 molar percent propionic acid.

[6] = feed-utilization efficiency in sheep; format: in vivo; settings: 56 days; for Feed Intake: control 3.56; for Feed/Gain: control 8.38; for Average Daily Gain: control .42

## CCC(C(=O)O)C1OC(C(C)C(O)C(C)C(=O)C(CC)C2OC3(C=CC(O)C4(CCC(C)(C5CCC(O)(CC)C(C)O5)O4)O3)C(C)CC2C)C(C)CC1C (stereo not drawn) [A-28086 factor A]
solubility; organic solvents such as methanol, ethanol, DMF, DMSO, ethyl acetate, chloroform, acetone, benzene
  solubility in organic solvents: soluble
solubility; water
  solubility in water: insoluble in water
[1]
  Relative G+ Activity: 1
Type III poliovirus
  antiviral activity: active
Vaccinia virus
  antiviral activity: active
Herpes virus
  antiviral activity: active
Semliki Forest virus
  antiviral activity: active
[2]
  antiviral activity: active
Newcastle Disease virus
  antiviral activity: active
[3]
  antiviral activity: active
Eimeria acervulina; 0.0025 percent in feed
  Oocysts Passed, Percent Reduction: 86%
  Percent Mortality: 0%
  Average Lesion Score: 1.25
  Oocysts Passed, Total/Bird: 4.91 1 × 10^6
  Percent Weight Gain: 82%
Eimeria acervulina; 0.005 percent in feed
  Oocysts Passed, Percent Reduction: 83%
  Percent Mortality: 0%
  Percent Reduction in Lesion Score: 53%
  Average Lesion Score: 0.75
  Oocysts Passed, Total/Bird: 6.15 1 × 10^6
  Percent Weight Gain: 87%
Eimeria maxima
  Oocysts Passed, Percent Reduction: 40%
  Percent Mortality: 0%
  Percent Reduction in Lesion Score: 85%
Eimeria maxima; infected controls 1.3
  Average Lesion Score: 0.2
Eimeria maxima; infected controls 3.24
  Oocysts Passed, Total/Bird: 1.95 1 × 10^6
Eimeria maxima; infected controls 65
  Percent Weight Gain: 85%
Emeria brunetti
  Oocysts Passed, Percent Reduction: 58%
  Percent Mortality: 0%
Emeria brunetti; infected controls 1.7
  Average Lesion Score: 1.2
Emeria brunetti; infected controls 5.55
  Oocysts Passed, Total/Bird: 2.31 1 × 10^6
Emeria brunetti; infected controls 62
  Percent Weight Gain: 88%
[4]
  Cecal Lesions, Percent Reduction: 50%
  Intestinal Lesions, Percent Reduction: 59%
[4]; infected controls 1.7
  Intestinal Lesions, Average: 0.7
[4]; infected controls 3.5
  Cecal Lesions, Average: 1.75
[4]; infected controls 20
  Percent Mortality: 0%
[4]; infected controls 52
  Percent Weight Gain: 94%
[5]
  Cecal Lesions, Percent Reduction: 73%
  Intestinal Lesions, Percent Reduction: 79%
[5]; infected controls 1.9
  Intestinal Lesions, Average: 0.4
[5]; infected controls 3.3
  Cecal Lesions, Average: 0.9
[5]; infected controls 12
  Percent Weight Gain: 91%
[5]; infected controls 50
  Percent Mortality: 0%
Rumen fluid
  Ratio of Treated to Control, Molar % acetate: 0.94
  Ratio of Treated to Control, Molar % butyrate: 0.87
  Ratio of Treated to Control, Molar % propionate: 1.34
  Ratio of Treated to Control, Total VFA mM/l: 1.26
Ruminal propionic acid; 25 mg/day
  Percent Increase Over Control in ruminal propionic acid concentration: 17.4%
Ruminal propionic acid; 100 mg/day
  Percent Increase Over Control in ruminal propionic acid concentration: 54.0%
[6]; 9 g per ton of feed
  Feed Intake: 3.29 lbs./day
  Feed/Gain: 7.40
  Average Daily Gain: .44 lbs./day
[6]; 18 g per ton of feed
  Feed Intake: 3.15 lbs./day
  Feed/Gain: 8.31
  Average Daily Gain: .38 lbs./day
[6]; sheep
  feed-utilization efficiency (in words): increases feed-utilization efficiency
